Measurements published in patent EP1280522B1, “COMBINATION OF CARBOXYALKYLETHERS WITH ANTIHYPERTENSIVES AND PHARMACEUTICAL USE” (WARNER-LAMBERT COMPANY, priority 2000, dated 2001).
“And” between values parts separate entries of the source, which are not always exact repeats. Equal values may be shown once.

Experiments:
[1] = system: SHR; assay: Antihypertensive effect on MABP in SHR by radiotelemetry: CI-1027, amlodipine and their combination (Example 2); type: in vivo, rats; settings: for MABP: peak MABP 4-6 hours postdose
Procedure: The general procedure of Example 1 was followed to evaluate the antihypertensive efficacy of the carboxyalkylether CI-1027 alone and in combination with the calcium channel blocker amlodipine.
Male SHR (15-20 weeks old, Charles River Laboratories) were prepared with indwelling aortic catheters and radiotransmitters for continuous measurement of arterial blood pressure and heart rate. Animals were allowed food and water ad libitum. Before dosing all rats were given a minimum of 7 days for recovery from surgery.
The experiment was carried out over 22 days in 3 groups of SHR. Group I served as a control and received 2 mL/kg/day of vehicle (same as in Example 1) for 22 consecutive days. Group II, used to determined the antihypertensive response to amlodipine monotherapy, was given vehicle for the first 13 consecutive days. Then on Day 14, amlodipine was added at a dose of 0.3 mg/kg/day for 3 consecutive days. The dose was then increased to 1 mg/kg/day for the next 3 days, and on the final 3 days, 3 mg/kg/day was given. To determine the response to CI-1027 monotherapy, Group III received a 13-day treatment with CI-1027 monotherapy at a dose of 30 mg/kg/day. The antihypertensive response to the combination therapy was determined by the addition of amlodipine to ongoing CI-1027 treatment on Day 14.
Drugs were suspended or dissolved in vehicle that contains 96% water, 3% carboxymethocellulose, and 1% tween 88. Compounds were given at 9 AM daily by oral gavage in a volume of 2 mL/kg. The combination of CI-1027 and amlodipine was given as a single gavage in a volume of 2 mL/kg.

[2] = system: spontaneously hypertensive rats (SHR); assay: Antihypertensive effect on MABP in SHR by radiotelemetry: CI-1027, quinapril and their combination (Example 1); type: in vivo; settings: for MABP: peak MABP 2-4 hours postdose
Procedure: The antihypertensive effects of the carboxyalkylether compound of Formula III (CI-1027), alone and in combination with an antihypertensive agent such as quinapril (CI-906), were evaluated in rats according to the following protocol.
Male spontaneously hypertensive rats (SHR, 15-20 weeks old, Charles River Laboratories, Wilmington, Massachusetts) were prepared with indwelling aortic catheters and radiotransmitters (Data Sciences International, Saint Paul, Minnesota). The radiotransmitters provided continuous measurement of aortic blood pressure waveform. From the aortic blood pressure waveform a Ponemah (Gould Instruments Inc, Valley View, Ohio) computer provided mean arterial blood pressure (MABP) and heart rate values continuously as one-minute averages. One-minute data was then summarized at 15-minute intervals using Excel (Microsoft Corporation, Redmond, Washington) spreadsheets. Animals were allowed food and water ad libitum. To allow for recovery following surgery, rats were not dosed for a minimum of 7 days. Day 0 predose blood pressures were obtained by averaging eight 15-minute MABP measurements made 2 hours before dosing. To obtain the peak response to treatment (Days 0, 12, 16, 19, and 22), the 15-minute MABP measurements in the interval between 2 and 4 hours post-dose were averaged.
Test compounds were given in a vehicle that contained 96% water, 3% carbomethocellulose (Sigma Chemical, Saint Louis, Missouri) and 1% tween 88 (polyoxyethylenesorbitan monooleate, Sigma Chemical). CI-1027 and quinapril monotherapy were administered at 8:30 AM daily by oral gavage in a volume of 2 mL/kg. The combination of CI-1027 and quinapril was given as a single gavage in a volume of 2 mL/kg.
The experiment was carried out over 22 days in 4 groups of animals. Group I served as a control and received 2 mL/kglday of vehicle for 22 consecutive days. Group II, used to determine the antihypertensive response to quinapril monotherapy, was given vehicle for the first 12 to 13 consecutive days. Then on Day 13 to 14 quinapril was added at a dose of 0.3 mg/kg/day for 3 to 4 consecutive days; the dose was then increased to 1 mg/kg/day for the next 3 days, and on the final 3 days, 3 mg/kg/day was administered. To determine the response to CI-1027 monotherapy, Groups III and IV received 12-day treatment with CI-1027 monotherapy at doses of 30 and 100 mg/kg/day, respectively. To determine the antihypertensive response to the combination therapy quinapril, was added to the ongoing CI-1027 treatment (Day 13-14) using the rising dose protocol described for Group II (quinapril monotherapy).

Question: `CC(C)(CCCCOCCCCC(C)(C)C(=O)O)C(=O)O` [CI-1027] was tested. Which MABP ([1]; Group 3, Day 0, CI-1027 30 mg/kg/day oral gavage, predose 131 ± 3) did it give?
Answer: CI-1027 (30 mg/kg/day) 129 ± 4 mm Hg

Question: What about the antihypertensive activity ([2]; CI-1027 monotherapy, 12 days, 30 and 100 mg/kg/day) of the same compound?
Answer: modest

Question: What about the MABP ([2]; Group 3, Day 0, CI-1027 30 mg/kg/day oral gavage, predose 149 ± 3) of the same compound?
Answer: 145 ± 4 mm Hg

Question: And the MABP ([2]; Group 3, Day 12, CI-1027 30 mg/kg/day oral gavage, 30 mg/kg/day)?
Answer: 131 mm Hg and 131 ± 3 mm Hg

Question: What about the MABP ([2]; Group 4, Day 0, CI-1027 100 mg/kg/day oral gavage, predose 141 ± 4) of the same compound?
Answer: 141 ± 4 mm Hg

Question: For `CCOC(=O)[C@H](CCc1ccccc1)N[C@@H](C)C(=O)N1Cc2ccccc2C[C@H]1C(=O)O` [Quinapril, quinapril], which MABP ([2]; Group 2, Day 16, Quinapril 0.3 mg/kg/day oral gavage, mean ± standard error) is on record?
Answer: 122 ± 5 mm Hg

Question: What about the MABP ([2]; Group 2, Day 19, Quinapril 1 mg/kg/day oral gavage, mean ± standard error) of the same compound?
Answer: 121 ± 4 mm Hg

Question: And the MABP ([2]; Group 2, Day 22, Quinapril 3 mg/kg/day oral gavage, mean ± standard error)?
Answer: 117 mm Hg and 117 ± 4 mm Hg

Question: And the “antihypertensive response at 3 mg/kg/day greater than noted at 0.3 mg/kg/day” value ([2]; Quinapril monotherapy, rising dose protocol, difference between 3 and 0.3 mg/kg/day)?
Answer: 5 mm Hg

Question: Which results are given for `CCOC(=O)C1=C(COCCN)NC(C)=C(C(=O)OC)C1c1ccccc1Cl` (stereo not drawn) [Amlodipine, amlodipine]?
Answer: MABP ([1]; Group 2, Day 16, Amlodipine 0.3 mg/kg/day oral gavage, mean ± standard error): Amlodipine (0.3 mg/kg/day) 140 ± 6 mm Hg; MABP ([1]; Group 2, Day 19, Amlodipine 1 mg/kg/day oral gavage): Amlodipine (1 mg/kg/day) 131 ± 5 mm Hg; minimal effective dose ([1]; Rattus norvegicus, po, amlodipine monotherapy (Group II), rising dose protocol, read-out: threshold antihypertensive dose): 1 mg/kg/day
